Measured values reported in patent publication US20250357519A1, “APPLICATIONS OF O2-INSENSITIVE FORMATE DEHYDROGENASE” (UNIVERSITY OF MARYLAND, BALTIMORE, priority 2022, published 2025).
Read-outs that look alike come from different tables or passages of the source.

Tests used:
[1] = target: T1, Desulfovibrio vulgaris Hildenborough (DvH) W-FDH1, recombinant (W-FDH1^REC), large subunit DVU0587 SEQ ID NO: 29, small subunit DVU0588 SEQ ID NO: 30 (Nitratidesulfovibrio vulgaris, UniProt Q72EJ1); conditions: cited from earlier work
T1 construct: mature large subunit lacks Tat signal peptide; literature data of Oliveira et al. reanalysed
T1 sequence (Q72EJ1 36-1005): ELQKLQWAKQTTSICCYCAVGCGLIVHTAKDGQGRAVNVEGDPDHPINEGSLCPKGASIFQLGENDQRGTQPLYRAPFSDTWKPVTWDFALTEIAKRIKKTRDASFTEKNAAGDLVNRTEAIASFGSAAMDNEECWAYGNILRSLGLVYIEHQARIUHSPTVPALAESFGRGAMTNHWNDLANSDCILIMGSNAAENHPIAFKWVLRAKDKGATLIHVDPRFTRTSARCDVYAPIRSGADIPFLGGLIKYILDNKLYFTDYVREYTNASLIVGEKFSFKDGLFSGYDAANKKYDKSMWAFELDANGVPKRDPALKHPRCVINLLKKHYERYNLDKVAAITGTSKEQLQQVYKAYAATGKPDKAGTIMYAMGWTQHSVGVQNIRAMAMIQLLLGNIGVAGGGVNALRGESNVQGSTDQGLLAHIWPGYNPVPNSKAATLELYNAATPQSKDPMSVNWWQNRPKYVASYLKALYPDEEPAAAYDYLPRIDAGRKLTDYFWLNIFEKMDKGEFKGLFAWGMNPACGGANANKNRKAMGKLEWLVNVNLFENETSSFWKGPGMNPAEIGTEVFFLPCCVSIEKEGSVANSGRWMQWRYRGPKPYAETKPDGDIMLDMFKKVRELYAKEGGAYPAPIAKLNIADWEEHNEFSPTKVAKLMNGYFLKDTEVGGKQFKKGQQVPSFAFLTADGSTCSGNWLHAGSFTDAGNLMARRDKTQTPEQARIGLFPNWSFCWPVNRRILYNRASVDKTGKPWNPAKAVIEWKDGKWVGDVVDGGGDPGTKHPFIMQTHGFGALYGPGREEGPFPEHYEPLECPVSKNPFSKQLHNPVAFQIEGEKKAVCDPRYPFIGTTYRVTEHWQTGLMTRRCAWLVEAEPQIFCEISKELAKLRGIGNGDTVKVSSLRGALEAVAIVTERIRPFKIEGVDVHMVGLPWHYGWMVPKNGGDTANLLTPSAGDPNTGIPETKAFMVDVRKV
T1 sequence (Q72EJ0 1-236 partner): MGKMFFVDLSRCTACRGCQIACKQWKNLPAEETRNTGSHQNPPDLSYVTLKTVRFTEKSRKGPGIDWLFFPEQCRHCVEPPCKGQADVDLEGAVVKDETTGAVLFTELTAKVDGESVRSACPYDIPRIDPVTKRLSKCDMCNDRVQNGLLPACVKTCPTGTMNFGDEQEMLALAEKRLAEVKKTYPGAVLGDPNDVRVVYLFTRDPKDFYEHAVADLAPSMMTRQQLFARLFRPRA

[2] = target: T2, Desulfovibrio vulgaris Hildenborough (DvH) FDH2, recombinant Strep-tag II-tagged (FDH2^Rec), large subunit DVU2482 SEQ ID NO: 31, small subunit DVU2481 SEQ ID N (Nitratidesulfovibrio vulgaris, UniProt Q728X0); experiment: PES/DCPIP assay of formate oxidation
T2 sequence (Q728X0 36-1003): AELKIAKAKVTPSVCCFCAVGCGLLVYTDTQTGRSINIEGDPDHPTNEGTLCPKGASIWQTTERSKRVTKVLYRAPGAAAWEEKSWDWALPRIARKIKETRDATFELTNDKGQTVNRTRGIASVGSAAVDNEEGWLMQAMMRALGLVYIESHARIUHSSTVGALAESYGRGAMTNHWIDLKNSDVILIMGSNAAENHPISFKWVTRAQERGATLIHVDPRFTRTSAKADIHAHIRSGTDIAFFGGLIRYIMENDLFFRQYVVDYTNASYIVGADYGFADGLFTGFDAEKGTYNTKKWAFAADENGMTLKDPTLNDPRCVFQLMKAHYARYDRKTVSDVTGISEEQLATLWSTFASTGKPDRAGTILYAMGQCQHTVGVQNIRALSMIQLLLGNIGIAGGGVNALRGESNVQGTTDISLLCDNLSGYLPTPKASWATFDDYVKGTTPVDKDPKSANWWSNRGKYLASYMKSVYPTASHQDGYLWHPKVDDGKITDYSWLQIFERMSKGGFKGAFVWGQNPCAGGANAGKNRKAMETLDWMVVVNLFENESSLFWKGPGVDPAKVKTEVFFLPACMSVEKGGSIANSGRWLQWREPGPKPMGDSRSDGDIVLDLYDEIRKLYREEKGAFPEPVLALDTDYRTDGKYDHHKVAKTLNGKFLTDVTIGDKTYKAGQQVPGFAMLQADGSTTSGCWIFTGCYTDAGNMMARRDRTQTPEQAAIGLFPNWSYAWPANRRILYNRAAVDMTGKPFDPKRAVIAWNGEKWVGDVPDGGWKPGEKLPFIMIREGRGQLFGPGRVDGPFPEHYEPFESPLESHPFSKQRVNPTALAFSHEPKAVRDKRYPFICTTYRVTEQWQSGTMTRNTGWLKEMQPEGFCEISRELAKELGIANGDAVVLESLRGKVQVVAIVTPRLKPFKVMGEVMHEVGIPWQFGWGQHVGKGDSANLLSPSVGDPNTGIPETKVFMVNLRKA
T2 sequence (Q728X1 1-260 partner): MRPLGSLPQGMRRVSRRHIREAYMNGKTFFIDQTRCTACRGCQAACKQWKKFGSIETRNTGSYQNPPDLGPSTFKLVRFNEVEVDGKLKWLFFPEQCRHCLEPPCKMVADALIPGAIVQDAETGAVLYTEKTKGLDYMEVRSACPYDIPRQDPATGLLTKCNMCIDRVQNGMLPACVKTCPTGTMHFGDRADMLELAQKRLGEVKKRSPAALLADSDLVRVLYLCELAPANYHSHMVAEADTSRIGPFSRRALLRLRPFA

[3] = test system: Desulfovibrio vulgaris Hildenborough (DvH) W-FDH1, wild-type natively-purified (W-FDH1^WT), large subunit DVU0587 SEQ ID NO: 29, small subunit DVU0588 SEQ ID …; conditions: pH 7.6, RT, 2 mM BV, cited from earlier work
[4] = pH 7.6, RT, 2 mM BV, 1.4 nM enzyme, Oliveira et al (2020)
[5] = 0.0124 nM enzyme, Da Silva et al (2011)

SMILES: O=CO [formate]
- kcat ([1]; pH 7.6, RT, 2 mM BV, 1.4 nM enzyme, Alvarez-Malmagro et al (2021)): 1144 s⁻¹
- kcat ([1]; pH 7.6, RT, 2 mM BV, 1.4 nM enzyme, Miller et al (2018)): 1100 s⁻¹
- Km [1, 4]: 16.9 ± 2.8 µM
- kcat [1, 4]: 1310 ± 50 s⁻¹
- kcat ([1]; pH 7.6, RT, 2 mM BV, 1.4 nM enzyme, Szczesny et al (2019)): 940 s⁻¹
- Km ([1]; value reported by Oliveira et al., as cited in text, BV): 17 µM
- kcat ([2]; DCPIP (air), full progress curve global fit): 354 ± 5 s⁻¹
- kcat ([2]; DCPIP (anaerobic), full progress curve global fit): 258 ± 3 s⁻¹
- kcat ([2]; PES/DCPIP, air, initial velocities, 10 replicates, pH 8.0): 317 ± 14 s⁻¹
- TN (kcat) relative to that obtained with 2 mM BV ([2]; PES/DCPIP, anaerobic full-progress curves vs 2 mM BV): ~5 fold
- kcat ([2]; PES/DCPIP, anaerobic, initial velocities, 5 replicates, pH 8.0): 220 ± 5 s⁻¹
- TN (kcat) for formate oxidation relative to Mo-Cys-FDH from Rhodobacter capsulatus ([2]; PES/DCPIP, comparator with NAD^+ as acceptor (ref 40)): roughly an order of magnitude
- binding constant (Km) for formate ([2]; general statement, 1.6 nM enzyme, formate 0 to 100 μM): low micromolar range
- Km [3, 5]: 1 µM
- kcat [3, 5]: 3684 s⁻¹
- kcat ([3]; 1.4 nM enzyme, Oliveira et al (2020)): 1104 ± 62 s⁻¹
